# Laboratory results as given in ChEMBL document CHEMBL3392982, “Synthesis and membrane-protective activity of novel derivatives of α-mangostin at the C-4 position” (Bioorg Med Chem Lett, 2015).
# Calls of active or inactive are those of the source. The rule behind the calls is not given here.
# How the values were obtained:
# [1] = Toxicity in mouse erythrocytes assessed as induction of hemolysis at 10 and 30 uM incubated for 5 hrs; assay type: cell-based; conditions: erythrocyte
# Erythrocyte [2] = test: Membrane-protective activity in mouse erythrocytes assessed as inhibition of H2O2-induced hemolysis at 30 uM pre-incubated for 30 mins before H2O2 injection and measured 5 hrs post H2O2 injection; assay type: functional, cell-based
# Erythrocyte [3] = test: Antioxidant activity in mouse erythrocytes assessed as inhibition of H2O2-induced secondary lipid peroxidation at 1 to 30 uM pre-incubated for 30 mins before H2O2 injection and measured 4 hrs post H2O2 injection by TBARS detection based spectrophotometry; assay type: functional, cell-based
# Erythrocyte [4] = test: Inhibition of H2O2-induced oxyhemoglobin oxidation in mouse erythrocytes assessed as metHb/oxyHb ratio level at 1 uM pre-incubated for 30 mins before H2O2 injection and measured 5 hrs post H2O2 injection; assay type: functional; design: scale not given: the % may be the effect or the level left
# Erythrocyte [5] = test: Inhibition of H2O2-induced oxyhemoglobin oxidation in mouse erythrocytes assessed as metHb/oxyHb ratio level at 10 uM pre-incubated for 30 mins before H2O2 injection and measured 5 hrs post H2O2 injection; assay type: functional; design: scale not given: the % may be the effect or the level left
# Erythrocyte [6] = test: Inhibition of H2O2-induced oxyhemoglobin oxidation in mouse erythrocytes assessed as metHb/oxyHb ratio level at 30 uM pre-incubated for 30 mins before H2O2 injection and measured 5 hrs post H2O2 injection; assay type: functional; design: scale not given: the % may be the effect or the level left
# Erythrocyte [7] = test: Inhibition of H2O2-induced oxyhemoglobin oxidation in mouse erythrocytes assessed as ferrylHb/oxyHb ratio level at 1 uM pre-incubated for 30 mins before H2O2 injection and measured 5 hrs post H2O2 injection; assay type: functional; design: scale not given: the % may be the effect or the level left
# Erythrocyte [8] = test: Inhibition of H2O2-induced oxyhemoglobin oxidation in mouse erythrocytes assessed as ferrylHb/oxyHb ratio level at 10 uM pre-incubated for 30 mins before H2O2 injection and measured 5 hrs post H2O2 injection; assay type: functional; design: scale not given: the % may be the effect or the level left
# Erythrocyte [9] = test: Inhibition of H2O2-induced oxyhemoglobin oxidation in mouse erythrocytes assessed as ferrylHb/oxyHb ratio level at 30 uM pre-incubated for 30 mins before H2O2 injection and measured 5 hrs post H2O2 injection; assay type: functional; design: scale not given: the % may be the effect or the level left
# Erythrocyte [10] = test: Membrane-protective activity in mouse erythrocytes assessed as inhibition of H2O2-induced hemolysis pre-incubated for 30 mins before H2O2 injection and measured 5 hrs post H2O2 injection; assay type: functional, cell-based
# [11] = Toxicity in H2O2-induced mouse erythrocytes assessed as induction of hemolysis at 30 uM pre-incubated for 30 mins before H2O2 injection and measured 5 hrs post H2O2 injection; assay type: cell-based; conditions: erythrocyte
# Erythrocyte [12] = test: Membrane-protective activity in mouse erythrocytes assessed as inhibition of H2O2-induced hemolysis at 10 to 30 uM pre-incubated for 30 mins before H2O2 injection and measured 5 hrs post H2O2 injection; assay type: functional, cell-based
# [13] = Toxicity in rabbit erythrocytes assessed as induction of cell death at 7.8 to 15.6 uM within 1 hr; assay type: cell-based, Oryctolagus cuniculus, Erythrocyte; conditions: read-out: Activity
# [14] = Toxicity in rabbit erythrocytes assessed as induction of hemolysis at 10 uM within 1 hr; assay type: cell-based, Oryctolagus cuniculus, Erythrocyte; conditions: read-out: Activity
# Erythrocyte [15] = test: Membrane-protective activity in mouse erythrocytes assessed as inhibition of H2O2-induced hemolysis at 1 uM pre-incubated for 30 mins before H2O2 injection and measured 5 hrs post H2O2 injection; assay type: functional, cell-based
SMILES,Activity [1],Activity (Erythrocyte [2]),Activity (Erythrocyte [3]),Activity (Erythrocyte [4]),Activity (Erythrocyte [5]),Activity (Erythrocyte [6]),Activity (Erythrocyte [7]),Activity (Erythrocyte [8]),Activity (Erythrocyte [9]),Activity (Erythrocyte [10]),Activity [11],Activity (Erythrocyte [12]),"hemolysis at 1 h, up to 15.6 µM [13]","hemolysis at 1 h, 10 µM [14]",Activity (Erythrocyte [15])
COc1c(O)cc2oc3c(Cc4cc(C(C)(C)C)c(O)c(C(C)(C)C)c4)c(O)c(CC=C(C)C)c(O)c3c(=O)c2c1CC=C(C)C,Non-toxic,Active,Active,98.4%,63.8%,35.5%,81%,53.3%,22.5%,,,,,,
COc1c(O)cc2oc3c(CN(C)C)c(O)c(CC=C(C)C)c(O)c3c(=O)c2c1CC=C(C)C,Non-toxic,,Active,65.8%,37.5%,196.4%,67.4%,35.5%,162.3%,Dose-dependent effect,Toxic,,,,
COc1c(O)cc2oc3c(CN4CCCCC4)c(O)c(CC=C(C)C)c(O)c3c(=O)c2c1CC=C(C)C,Non-toxic,,Active,56.9%,40.7%,24%,58%,32.3%,18.5%,,,Active,,,
COc1c(O)cc2oc3c(CN4CCOCC4)c(O)c(CC=C(C)C)c(O)c3c(=O)c2c1CC=C(C)C,Non-toxic,,Active,112.5%,42.7%,27.9%,91.8%,37.1%,25.2%,,,Active,,,
COc1c(O)cc2oc3cc(O)c(CC=C(C)C)c(O)c3c(=O)c2c1CC=C(C)C [MANGOSTIN],Toxic,,Active,44.7%,45.5%,,55.3%,39.5%,,Dose-dependent effect,Toxic,,10.5%,10.1%,
COc1c(O)cc2oc3c(Cc4cc([C@H]5C[C@@H]6CC[C@@]5(C)C6(C)C)c(O)c([C@@H]5C[C@H]6CC[C@]5(C)C6(C)C)c4)c(O)c(CC=C(C)C)c(O)c3c(=O)c2c1CC=C(C)C,Non-toxic,,Active,60.1%,77.3%,105.6%,61.5%,70.9%,64.2%,,,,,,Active
